Measured values as given in PMC8041284, “Tunable Methacrylamides for Covalent Ligand Directed Release Chemistry” (Journal of the American Chemical Society, 2021).
Read-outs that look alike come from different tables or passages of the source.

Molecular target: BTK (Homo sapiens, UniProt Q06187)
Assay: biochemical
[1] = read-out: BTK inhibition (%), 0.75 uM BTK, […] probe 3l, 15 min preincubation

Sequence of BTK (Q06187 402-655 limits assumed): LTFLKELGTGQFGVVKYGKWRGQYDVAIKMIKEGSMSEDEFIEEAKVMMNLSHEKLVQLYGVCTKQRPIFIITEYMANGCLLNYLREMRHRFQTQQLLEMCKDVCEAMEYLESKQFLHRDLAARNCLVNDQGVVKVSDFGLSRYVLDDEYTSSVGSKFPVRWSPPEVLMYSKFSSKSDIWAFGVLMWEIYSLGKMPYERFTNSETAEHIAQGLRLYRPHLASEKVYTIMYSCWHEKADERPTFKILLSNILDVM

Compound: CCCCC[C@H](O)CC(=O)CCc1ccc(O)c(OC)c1 [PCM-0214961]
- inhibition at 10 µM [1]: 1.6%

Compound: O=c1oc2cc(O)ccc2s1 [PCM-0090709]
- inhibition at 10 µM [1]: -13.2%

Compound: COc1cc(OC)c(NC(=O)Nc2cc(C)on2)cc1Cl [PCM-0095491]
- inhibition at 10 µM [1]: 10.9%

Compound: O=C(Nc1ccccc1)N1CCN(c2nc(-c3ccccc3)ns2)CC1 [PCM-0010620]
- inhibition at 10 µM [1]: -3.9%

Compound: CCN(CC)C(=O)/C(C#N)=C/c1cc(O)c(O)c([N+](=O)[O-])c1 [PCM-0085960]
- inhibition at 10 µM [1]: 38.1%

Compound: C=C1/C(=C\C=C2/CCC[C@]3(C)[C@@H]([C@H](C)/C=C/[C@H](C)C(C)C)CC[C@@H]23)C[C@@H](O)C[C@@H]1O [PCM-0214626]
- inhibition at 10 µM [1]: 4.1%

Compound: NC(=O)c1ncn([C@@H]2O[C@H](CO)[C@@H](O)[C@H]2O)c1O [PCM-0065422]
- inhibition at 10 µM [1]: 0.9%

Compound: OC[C@H]1NC[C@H](O)[C@@H](O)[C@@H]1O [PCM-0214950]
- inhibition at 10 µM [1]: -9.3%

Compound: O=CCc1ccccc1 [PCM-0216613]
- inhibition at 10 µM [1]: 6.9%

Compound: COc1ccc(NS(=O)(=O)c2sc3ccc(Cl)cc3c2C)cc1N1CCNCC1 [PCM-0095497]
- inhibition at 10 µM [1]: -35%

Compound: COc1ccccc1OCC(O)CO (stereo not drawn) [PCM-0086515]
- inhibition at 10 µM [1]: -2.3%

Compound: COC(=O)C1=CO[C@@H](O)[C@@H]2C(CO)=CC[C@H]12 [PCM-0065168]
- inhibition at 10 µM [1]: -1.6%

Compound: O=C(O)/C=C/c1ccc(O)cc1 [PCM-0214939]
- inhibition at 10 µM [1]: -21.8%

Compound: Nc1nonc1C(=Nc1ccc(F)c(Cl)c1)NO [PCM-0095795]
- inhibition at 10 µM [1]: -3.1%

Compound: CO[C@H]1[C@@H](O)[C@H](O[C@@H]2[C@@H](C)O[C@@H](O[C@H]3CC[C@@]4(C)[C@@H](CC[C@@]56O[C@@]57CC[C@@H](C(C)=O)[C@@]7(C)[C@H](OC(C)=O)[C@@H](OC(=O)c5ccccc5)[C@H]46)C3)C[C@H]2OC)O[C@H](C)[C@H]1O [PCM-0216600]
- inhibition at 10 µM [1]: -12.4%

Compound: COc1cc2nc(N3CCCN(C)CC3)nc(NC3CCN(Cc4ccccc4)CC3)c2cc1OC [PCM-0064746]
- inhibition at 10 µM [1]: -0.7%

Compound: Nc1ccc2ncnc(NCCc3ccc(Oc4ccccc4)cc3)c2c1 [PCM-0095674]
- inhibition at 10 µM [1]: -4.1%

Compound: O=C(CBr)c1ccc(O)cc1 [PCM-0214871]
- inhibition at 10 µM [1]: -28.8%

Compound: NC(=O)N1c2ccccc2CC(=O)c2ccccc21 [PCM-0086055]
- inhibition at 10 µM [1]: -10.1%

Compound: O=c1cc(CN2CCOCC2)occ1OCCCCCSc1ccnc2cc(C(F)(F)F)ccc12 [PCM-0095730]
- inhibition at 10 µM [1]: -34.7%

Compound: O=c1ccc2ccc(O)c(O)c2o1 [PCM-0065041]
- inhibition at 10 µM [1]: 15.9%

Compound: COc1ccc2[nH]cc(CCNC(C)=O)c2c1 [PCM-0065583]
- inhibition at 10 µM [1]: 11.7%

Compound: CC(=O)Nc1ccc(OC[C@](C)(O)C(=O)Nc2ccc([N+](=O)[O-])c(C(F)(F)F)c2)cc1 [PCM-0094957]
- inhibition at 10 µM (read-out: BTK inhibition (%)): -1.4%

Compound: CC1(C)CC[C@]2(C(=O)O)[C@H](O)C[C@]3(C)C(=CC[C@@H]4[C@@]5(C)C[C@H](O)[C@H](O)[C@@](C)(CO)[C@@H]5CC[C@]43C)[C@@H]2C1 [PCM-0216296]
- inhibition at 10 µM [1]: -10.8%

Compound: CC(C(=O)O)c1cccc(C(=O)c2ccccc2)c1 (stereo not drawn) [PCM-0065500]
- inhibition at 10 µM [1]: -17.9%

Compound: Nc1nc(-c2nn(Cc3ccccc3F)c3ncccc23)ncc1C1CC1 [PCM-0215570]
- inhibition at 10 µM [1]: -5.4%

Compound: NC(Cc1c[nH]c2ccc(O)cc12)C(=O)O (stereo not drawn) [PCM-0094825]
- inhibition at 10 µM [1]: -2.3%

Compound: O=C1[C@H](CC[C@H](O)c2ccc(F)cc2)[C@@H](c2ccc(O)cc2)N1c1ccc(F)cc1 [PCM-0095103]
- inhibition at 10 µM [1]: 31%

Compound: Cc1ncc(NC(=O)c2cccc(C(F)(F)F)c2)cc1-c1cnc(OC2CCOCC2)c(N2CCOCC2)c1 [PCM-0216049]
- inhibition at 10 µM [1]: -13.1%

Compound: CCCCCCCCCCCCCC(=S)NCCCC[C@H](NC(=O)OCc1ccccc1)C(=O)Nc1ccccc1 [PCM-0215787]
- inhibition at 10 µM [1]: -6.2%

Compound: CC(=O)OC(C)C(C)C(=O)OC[C@@]12[C@H]3C[C@]4(C)C(=CC[C@@H]5[C@@]6(C)CC[C@H](O[C@@H]7O[C@H](C(=O)O)[C@@H](O[C@@H]8O[C@H](CO)[C@@H](O)[C@H](O)[C@H]8O)[C@H](O)[C@H]7O[C@@H]7OC[C@@H](O)[C@H](O)[C@H]7O)[C@@](C)(CO)[C@@H]6CC[C@]54C)[C@@H]1CC(C)(C)[C@H](O3)[C@@H]2O (stereo partly drawn) [PCM-0215924]
- inhibition at 10 µM [1]: 5.1%

Compound: COCCCOc1cc(C[C@@H](C[C@H](N)[C@@H](O)C[C@H](C(=O)NCC(C)(C)C(N)=O)C(C)C)C(C)C)ccc1OC [PCM-0214569]
- inhibition at 10 µM [1]: 7%

Compound: CN(C)C(=O)c1cc2cnc(Nc3ccc(N4CCNCC4)cn3)nc2n1C1CCCC1 [PCM-0215283]
- inhibition at 10 µM [1]: -7.7%

Compound: CCCCC(=O)O[C@H]1CC[C@H]2[C@@H]3CCc4cc(O)ccc4[C@H]3CC[C@]12C [PCM-0214721]
- inhibition at 10 µM [1]: 17.9%

Compound: CCOC(=O)[C@H](CCc1ccccc1)N[C@@H](C)C(=O)N1CCC[C@H]1C(=O)O [PCM-0085929]
- inhibition at 10 µM [1]: 5.4%

Compound: CN(C)CCc1c[nH]c2ccc(Cn3cncn3)cc12 [PCM-0090241]
- inhibition at 10 µM [1]: -3.1%

Compound: NC(N)=NCCCC(N)C(=O)O (stereo not drawn) [PCM-0064685]
- inhibition at 10 µM [1]: -17%

Compound: O=S(=O)(N=Cc1c(O)ccc2ccccc12)c1cccs1 [PCM-0215452]
- inhibition at 10 µM [1]: -11.6%

Compound: CC(=O)OCC(=O)[C@@]1(O)CC[C@H]2[C@@H]3CCC4=CC(=O)CC[C@]4(C)[C@@]3(F)[C@@H](O)C[C@@]21C [PCM-0214907]
- inhibition at 10 µM [1]: -8.3%

Compound: CCCCCCCCCCCCCc1cccc(O)c1C(=O)O [PCM-0216334]
- inhibition at 10 µM [1]: 34%

Compound: COc1ccc2ccc(=O)oc2c1CC=C(C)C [PCM-0094564]
- inhibition at 10 µM [1]: -70%

Compound: Cc1onc(-c2ccccc2Cl)c1C(=O)N[C@@H]1C(=O)N2[C@@H]1SC(C)(C)[C@@H]2C(=O)O [PCM-0214695]
- inhibition at 10 µM [1]: -5.4%

Compound: O=c1cc(-c2ccc(O)c(O)c2)oc2cc(O)c([C@@H]3O[C@H](CO)[C@@H](O)[C@H](O)[C@H]3O)c(O)c12 [PCM-0216497]
- inhibition at 10 µM [1]: -4.6%

Compound: N#Cc1c(NC(=O)c2cccc3ccccc23)sc2c1CCCC2 [PCM-0095805]
- inhibition at 10 µM [1]: 16.6%

Compound: O=C1c2c(O)cccc2[C@H]([C@@H]2O[C@H](CO)[C@@H](O)[C@H](O)[C@H]2O)c2cc(CO)cc(O)c21 [PCM-0094826]
- inhibition at 10 µM [1]: 21%

Compound: N#Cc1cccc(-c2c[nH]c3ncnc(N4CCOCC4)c23)c1 [PCM-0215613]
- inhibition at 10 µM [1]: -8.3%

Compound: O=C1CCCC(=O)C1C(=O)c1ccc(C(F)(F)F)cc1[N+](=O)[O-] [PCM-0216128]
- inhibition at 10 µM [1]: -10%

Compound: CNS(=O)(=O)Nc1nccc(Cc2c(C)c3ccc(Oc4ncccn4)cc3oc2=O)c1F [PCM-0215552]
- inhibition at 10 µM [1]: 17.9%

Compound: COc1cc(O)cc2c1C(=O)C[C@@H](c1ccccc1)O2 [PCM-0214998]
- inhibition at 10 µM [1]: -12.5%

Compound: O=C(Nc1cccc(Cl)c1)Nc1ncc(CCNc2ncnc3ccsc23)s1 [PCM-0094983]
- inhibition at 10 µM [1]: 73.1%

Compound: CCn1c(=O)c(-c2ccc(Cl)cc2Cl)cc2cnc(Nc3ccc(N4CCNCC4)c(F)c3)nc21 [PCM-0215684]
- inhibition at 10 µM [1]: 87.6%

Compound: NC(N)=NCCC[C@H](N)C(=O)O [PCM-0215193]
- inhibition at 10 µM [1]: 2.6%

Compound: CC/C(=C(\c1ccc(O)cc1)c1ccc(OCCNC)cc1)c1ccccc1 [PCM-0215485]
- inhibition at 10 µM [1]: 14.7%

Compound: Nc1nc2c(ncn2[C@@H]2O[C@H](CO)[C@@H](O)[C@H]2O)c(=O)[nH]1 [PCM-0094848]
- inhibition at 10 µM [1]: 0%

Compound: O=C(NCC1CCOCC1)c1cnc(Nc2ccc(Cl)cc2Cl)nc1C(F)(F)F [PCM-0095345]
- inhibition at 10 µM (read-out: BTK inhibition (%)): -9.3%

Compound: C1CNCCNCCNCCN1 [PCM-0215094]
- inhibition at 10 µM [1]: -4.7%

Compound: COc1ccccc1N1CCN(CCN(C(=O)C2CCCCC2)c2ccccn2)CC1 [PCM-0064827]
- inhibition at 10 µM [1]: -6.2%
